Values quoted from earlier work, collected in publication PMC5074076, “Novel minimal physiologically-based model for the prediction of passive tubular reabsorption and renal excretion clearance” (European Journal of Pharmaceutical Sciences, 2016).

Conditions: healthy subjects; plasma and urine data from same subjects; normalised for subject weight and body surface area where necessary; ref Table S2.1; cited from earlier work

Compound	Overall weighted mean CLR [mL/min]
CO[C@H]1/C=C/O[C@@]2(C)Oc3c(C)c(O)c4c(O)c(c(/C=N/N5CCN(C)CC5)c(O)c4c3C2=O)NC(=O)/C(C)=C\C=C\[C@H](C)[C@H](O)[C@@H](C)[C@@H](O)[C@@H](C)[C@H](OC(C)=O)[C@@H]1C [Rifampin]	18.7
O=C(NC[C@H]1CN(c2ccc(N3CCOCC3=O)cc2)C(=O)O1)c1ccc(Cl)s1 [Rivaroxaban]	49.8
CC(C)c1nc(N(C)S(C)(=O)=O)nc(-c2ccc(F)cc2)c1/C=C/[C@@H](O)C[C@@H](O)CC(=O)O [Rosuvastatin]	212.5
CN1CCN(c2c(F)cc3c(=O)c(C(=O)O)cn4c3c2SCC4)CC1 [Rufloxacin]	16.8
CC(C)(C)NCC(O)c1ccc(O)c(CO)c1 (centres unmarked) [Salbutamol]	289.9
CCN(CC)CCNC(=O)c1ccc(NS(C)(=O)=O)cc1 [Sematilide]	262.0
N[C@@H](CC(=O)N1CCn2c(nnc2C(F)(F)F)C1)Cc1cc(F)c(F)cc1F [Sitagliptin]	371.2
Cc1cn([C@@H]2C[C@@H](O)[C@H](CO)O2)c(=O)[nH]c1=O [Telbivudine]	116.7
CC1CN(c2cc3c(cc2F)c(=O)c(C(=O)O)cn3-c2ccc(F)cc2F)CCN1 (centres unmarked) [Temafloxacin]	122.5
CO[C@@]1(NC(=O)C(C(=O)O)c2ccsc2)C(=O)N2[C@@H](C(=O)O)C(C)(C)S[C@@H]21 (some centres unmarked) [Temocillin]	39.8
C[C@H](Cn1cnc2c(N)ncnc21)OCP(=O)(O)O [Tenofovir]	220.0
CC(CC(c1ccccc1)c1ccccc1)NC(C)(C)C (centres unmarked) [Terodiline]	11.1
CC(C)(C)NC[C@H](O)COc1nsnc1N1CCOCC1 [Timolol]	125.1
CCS(=O)(=O)CCn1c([N+](=O)[O-])cnc1C [Tinidazole]	11.3
Clc1ccc2nsnc2c1NC1=NCCN1 [Tizanidine]	66.2
C[C@@H](O)[C@H]1C(=O)N2C(C(=O)O)=C(S[C@H]3C[C@@H](C(=O)N4CC[C@H](NC(=O)CNC(=N)N)C4)N(C)C3)[C@H](C)[C@H]12 [Tomopenem]	77.7
COc1cc(Cc2cnc(N)nc2N)cc(OC)c1OC [Trimethoprim]	78.2
CCCC(CCC)C(=O)O [Valproic Acid]	0.2
CCCCC(=O)N(Cc1ccc(-c2ccccc2-c2nnn[nH]2)cc1)[C@H](C(=O)O)C(C)C [Valsartan]	11.2
c1cnc2cc3c(cc2n1)[C@@H]1CNC[C@H]3C1 [Varenicline]	118.6
CC(=O)N[C@H]1[C@H]([C@H](O)[C@H](O)CO)OC(C(=O)O)=C[C@@H]1N=C(N)N [Zanamivir]	89.1
Cc1cn([C@H]2C[C@H](N=[N+]=[N-])[C@@H](CO)O2)c(=O)[nH]c1=O [Zidovudine]	258.1
CN1CCN(C(=O)OC2c3nccnc3C(=O)N2c2ccc(Cl)cn2)CC1 (centres unmarked) [Zopiclone]	13.0
